In US9738634B2, “Heterocyclic amide compound and herbicide” (SYNGENTA PARTICIPATIONS AG, priority 2013, dated 2017):

What was measured:
Assay type in all cases: in vivo
[1] = tested on: chickweed; assay: Test Example 3: weedkilling efficacy through soil treatment; N: chickweed; conditions: treatment dosage 315 g/ha
How it was run: (§1)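 Crop and weed responses were judged three weeks after a uniform surface spray of the water-diluted emulsion at the given g/ha rate. Seeds sat beneath about 1.5 cm of sterilized diluvial soil, and boxes stood in a greenhouse at 25 to 30° C.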

[2] = tested on: soybean; assay: Test Example 3: soil treatment, effect on crop; d: soybean; conditions: treatment dosage 315 g/ha
How it was run: as §1

[3] = tested on: Indian mallow; assay: Test Example 4: weedkilling efficacy by foliar treatment; K: Indian mallow; conditions: treatment dosage 315 g/ha
How it was run: (§2)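 Seeds are spot-sown into sterilized diluvial soil and covered with about 1.5 cm of soil. After 14 days' greenhouse growth at 25 to 30° C, plants are sprayed on stems and leaves with diluted emulsion at the stated g/ha rate, then scored at 3 weeks.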

[4] = tested on: catchweed; assay: Test Example 4: weedkilling efficacy by foliar treatment; O: catchweed; conditions: treatment dosage 315 g/ha
How it was run: as §2

[5] = tested on: green foxtail; assay: Test Example 4: weedkilling efficacy by foliar treatment; E: green foxtail; conditions: treatment dosage 315 g/ha
How it was run: as §2

[6] = tested on: crabgrass; assay: Test Example 4: weedkilling efficacy by foliar treatment; D: crabgrass; conditions: treatment dosage 315 g/ha
How it was run: as §2

[7] = tested on: Indian mallow; assay: Test Example 3: weedkilling efficacy through soil treatment; K: Indian mallow; conditions: treatment dosage 315 g/ha
How it was run: as §1

[8] = tested on: crabgrass; assay: Test Example 3: weedkilling efficacy through soil treatment; D: crabgrass; conditions: treatment dosage 315 g/ha
How it was run: as §1

[9] = tested on: chickweed; assay: Test Example 4: weedkilling efficacy by foliar treatment; N: chickweed; conditions: treatment dosage 315 g/ha
How it was run: as §2

[10] = tested on: wheat; assay: Test Example 3: soil treatment, effect on crop; e: wheat; conditions: treatment dosage 315 g/ha
How it was run: as §1

[11] = tested on: green foxtail; assay: Test Example 3: weedkilling efficacy through soil treatment; E: green foxtail; conditions: treatment dosage 315 g/ha
How it was run: as §1

[12] = tested on: directly sown rice; assay: Test Example 4: foliar treatment, effect on crop; b: directly sown rice; conditions: treatment dosage 315 g/ha
How it was run: as §2

[13] = tested on: wild oat; assay: Test Example 3: weedkilling efficacy through soil treatment; G: wild oat; conditions: treatment dosage 315 g/ha
How it was run: as §1

[14] = tested on: corn; assay: Test Example 4: foliar treatment, effect on crop; c: corn; conditions: treatment dosage 315 g/ha
How it was run: as §2

[15] = tested on: redroot pigweed; assay: Test Example 4: weedkilling efficacy by foliar treatment; L: redroot pigweed; conditions: treatment dosage 315 g/ha
How it was run: as §2

[16] = tested on: Italian ryegrass; assay: Test Example 4: weedkilling efficacy by foliar treatment; I: Italian ryegrass; conditions: treatment dosage 315 g/ha
How it was run: as §2

[17] = tested on: corn; assay: Test Example 3: soil treatment, effect on crop; c: corn; conditions: treatment dosage 315 g/ha
How it was run: as §1

[18] = tested on: bulrush; assay: Test Example 1: weedkilling efficacy, preemergent weed treatment in the submerged state; B: bulrush; conditions: treatment dosage 252 g/ha
How it was run: (§3)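 Alluvial soil in Wagner pots flooded to 4 cm; barnyard grass, bulrush and oval-leafed pondweed seeds sown, then 2.5-leaf rice seedlings transplanted. Same day, emulsified compound diluted in water to set g/ha dosages and applied to water surface; greenhouse 25–30 °C, effect scored by criteria after 3 weeks.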

[19] = tested on: birds-eye speedwell; assay: Test Example 4: weedkilling efficacy by foliar treatment; p: birds-eye speedwell; conditions: treatment dosage 315 g/ha
How it was run: as §2

[20] = tested on: fig-leafed goosefoot; assay: Test Example 3: weedkilling efficacy through soil treatment; M: fig-leafed goosefoot; conditions: treatment dosage 315 g/ha
How it was run: as §1

[21] = tested on: oval-leafed pondweed; assay: Test Example 2: weedkilling efficacy, growth period weed treatment in the submerged state; C: oval-leafed pondweed; conditions: treatment dosage 252 g/ha
How it was run: (§4)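 First, alluvial soil in pots is flooded to 4 cm and mixed seed is sown. Next, plants grow in a greenhouse at 25 to 30° C until the 1-2 leaf stage. Then diluted emulsion is applied onto the water surface at the given g/ha rate, and injury is assessed after 3 weeks.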

[22] = tested on: beet; assay: Test Example 3: soil treatment, effect on crop; f: beet; conditions: treatment dosage 315 g/ha
How it was run: as §1

[23] = tested on: barnyard grass; assay: Test Example 2: weedkilling efficacy, growth period weed treatment in the submerged state; A: barnyard grass; conditions: treatment dosage 252 g/ha
How it was run: as §4

[24] = tested on: redroot pigweed; assay: Test Example 3: weedkilling efficacy through soil treatment; L: redroot pigweed; conditions: treatment dosage 315 g/ha
How it was run: as §1

[25] = tested on: soybean; assay: Test Example 4: foliar treatment, effect on crop; d: soybean; conditions: treatment dosage 315 g/ha
How it was run: as §2

[26] = tested on: barnyard grass; assay: Test Example 1: weedkilling efficacy, preemergent weed treatment in the submerged state; A: barnyard grass; conditions: treatment dosage 252 g/ha
How it was run: as §3

[27] = tested on: transplanted rice; assay: Test Example 1: preemergent weed treatment in the submerged state, effect on crop; a: transplanted rice; conditions: treatment dosage 252 g/ha
How it was run: as §3

[28] = tested on: bulrush; assay: Test Example 2: weedkilling efficacy, growth period weed treatment in the submerged state; B: bulrush; conditions: treatment dosage 252 g/ha
How it was run: as §4

[29] = tested on: black-grass; assay: Test Example 3: weedkilling efficacy through soil treatment; H: black-grass; conditions: treatment dosage 315 g/ha
How it was run: as §1

[30] = tested on: black-grass; assay: Test Example 4: weedkilling efficacy by foliar treatment; H: black-grass; conditions: treatment dosage 315 g/ha
How it was run: as §2

[31] = tested on: oval-leafed pondweed; assay: Test Example 1: weedkilling efficacy, preemergent weed treatment in the submerged state; C: oval-leafed pondweed; conditions: treatment dosage 252 g/ha
How it was run: as §3

[32] = tested on: wheat; assay: Test Example 4: foliar treatment, effect on crop; e: wheat; conditions: treatment dosage 315 g/ha
How it was run: as §2

[33] = tested on: wild oat; assay: Test Example 4: weedkilling efficacy by foliar treatment; G: wild oat; conditions: treatment dosage 315 g/ha
Protocol: Testing of Weedkilling Efficacy by Foliar Treatment
Sterilized diluvial soil was introduced into 21 cm long, 13 cm wide, 7 cm deep plastic boxes, and seeds of crabgrass, green foxtail, barnyard grass, wild oat, black-grass, Italian ryegrass, common wind-grass, Indian mallow, redroot pigweed, fig-leafed goosefoot, chickweed, catchweed, birds-eye speedwell, corn, soybean, rice, wheat, beet and rapeseed were each spot-sown, and covered with about 1.5 cm of soil, then the plants were grown in a greenhouse at 25 to 30° C.
After they had grown for 14 days, emulsions of compounds of the present invention prepared according to compounding example 2 were diluted with water to give the specified dosages, and applied uniformly onto the stem and leaf parts with a small sprayer. 3 weeks after the pesticide treatment the effect on each type of plant was investigated on the basis of the assessment criteria of test example 1.
A: barnyard grass, B: bulrush, C: oval-leafed pondweed, D: crabgrass, E: green foxtail, F: barnyard grass, G: wild oat, H: black-grass, I: Italian ryegrass, J: common wind-grass, K: Indian mallow, L: redroot pigweed, M: fig-leafed goosefoot, N: chickweed, O: catchweed, p: birds-eye speedwell, a: transplanted rice, b: directly sown rice, c: corn, d: soybean, e: wheat, f: beet, g: rapeseed
Further, pesticide dosage (g/ha) indicates the concentration regulated such that treatment was with only the stated number of grams (g), when calculated per hectare (ha).

[34] = tested on: Italian ryegrass; assay: Test Example 3: weedkilling efficacy through soil treatment; I: Italian ryegrass; conditions: treatment dosage 315 g/ha
How it was run: as §1

CC1=C(c2ccccc2)C(=O)N(C(C)(C)C(=O)Nc2cncc(F)c2)CO1 [B-3-01]
N (chickweed) weedkilling efficacy grade [1]: 4 (weed kill ratio 70% or more, less than 90%)
d (soybean) effect on crop grade [2]: 0 (weed kill ratio 5% or less (practically no effect))
K (Indian mallow) weedkilling efficacy grade [3]: 3 (weed kill ratio 40% or more, less than 70%)
O (catchweed) weedkilling efficacy grade [4]: 4 (weed kill ratio 70% or more, less than 90%)
E (green foxtail) weedkilling efficacy grade [5]: 5 (weed kill ratio 90% or more, (practically complete withering))
D (crabgrass) weedkilling efficacy grade [6]: 5 (weed kill ratio 90% or more, (practically complete withering))
K (Indian mallow) weedkilling efficacy grade [7]: 2 (weed kill ratio 20% or more, less than 40%)
D (crabgrass) weedkilling efficacy grade [8]: 5 (weed kill ratio 90% or more, (practically complete withering))
N (chickweed) weedkilling efficacy grade [9]: 2 (weed kill ratio 20% or more, less than 40%)
e (wheat) effect on crop grade [10]: 5 (weed kill ratio 90% or more, (practically complete withering))
E (green foxtail) weedkilling efficacy grade [11]: 5 (weed kill ratio 90% or more, (practically complete withering))
b (directly sown rice) effect on crop grade [12]: 5 (weed kill ratio 90% or more, (practically complete withering))
G (wild oat) weedkilling efficacy grade [13]: 5 (weed kill ratio 90% or more, (practically complete withering))
c (corn) effect on crop grade [14]: 4 (weed kill ratio 70% or more, less than 90%)
L (redroot pigweed) weedkilling efficacy grade [15]: 3 (weed kill ratio 40% or more, less than 70%)
I (Italian ryegrass) weedkilling efficacy grade [16]: 5 (weed kill ratio 90% or more, (practically complete withering))
c (corn) effect on crop grade [17]: 3 (weed kill ratio 40% or more, less than 70%)
B (bulrush) weedkilling efficacy grade [18]: 5 (weed kill ratio 90% or more, (practically complete withering))
P (birds-eye speedwell) weedkilling efficacy grade [19]: 3 (weed kill ratio 40% or more, less than 70%)
M (fig-leafed goosefoot) weedkilling efficacy grade [20]: 5 (weed kill ratio 90% or more, (practically complete withering))
C (oval-leafed pondweed) weedkilling efficacy grade [21]: 4 (weed kill ratio 70% or more, less than 90%)
f (beet) effect on crop grade [22]: 4 (weed kill ratio 70% or more, less than 90%)
A (barnyard grass) weedkilling efficacy grade [23]: 3 (weed kill ratio 40% or more, less than 70%)
L (redroot pigweed) weedkilling efficacy grade [24]: 4 (weed kill ratio 70% or more, less than 90%)
d (soybean) effect on crop grade [25]: 4 (weed kill ratio 70% or more, less than 90%)
A (barnyard grass) weedkilling efficacy grade [26]: 5 (weed kill ratio 90% or more, (practically complete withering))
a (transplanted rice) effect on crop grade [27]: 0 (weed kill ratio 5% or less (practically no effect))
B (bulrush) weedkilling efficacy grade [28]: 5 (weed kill ratio 90% or more, (practically complete withering))
H (black-grass) weedkilling efficacy grade [29]: 5 (weed kill ratio 90% or more, (practically complete withering))
H (black-grass) weedkilling efficacy grade [30]: 5 (weed kill ratio 90% or more, (practically complete withering))
C (oval-leafed pondweed) weedkilling efficacy grade [31]: 5 (weed kill ratio 90% or more, (practically complete withering))
e (wheat) effect on crop grade [32]: 1 (weed kill ratio 5% or more, less than 20%)
G (wild oat) weedkilling efficacy grade [33]: 5 (weed kill ratio 90% or more, (practically complete withering))
I (Italian ryegrass) weedkilling efficacy grade [34]: 5 (weed kill ratio 90% or more, (practically complete withering))
